What was measured:
[1] = tested on: extracellular interleukin IL-6; assay: Contagious aging (bystander effect) model: extracellular IL-6 by ELISA in R6 young fibroblasts treated with product, then MCR20 conditioned medium; type: cell-based, human; conditions: for Extracellular IL-6, N1i: R6 passage young human dermal fibroblasts, treated then placed in contact with MCR20 conditioned medium, compositions diluted in 1,3-propanediol to 0.1% by mass
Description: This method uses a specific antibody for human IL-6 attached to the bottom of the wells of a measuring plate. The samples to be assayed are added to the wells and the IL-6 present in the samples binds to the immobilized antibody. The wells are then washed and another biotinylated anti-human IL-6 antibody is added.
The wells are once again rinsed to remove the nonbound antibody, and streptavidin conjugated to the enzyme HRP (horseradish peroxidase) is added to the wells. The wells are once again rinsed and the HRP substrate tetramethylbenzidine is added to the wells.
The intensity of the color develops proportionately to the amount of IL-6 bound. The “stop” solution changes the color from blue to yellow, and the color intensity is measured at 450 nm by spectrophotometry. The IL-6 concentration is calculated by referring to a calibration range.
The particular process thus comprises the following steps: • Step i) of culturing of culturing human dermal fibroblasts, taken at the R19 passage in T25 flasks, • Step ii) of amplification of the cells obtained on conclusion of step i) to obtain a medium conditioned with senescent cells or “MC R20”. Amplification of the cells obtained on conclusion of step i) is performed by seeding said cells in Petri dishes at 0.3 M/Petri dish. After amplification for 4 days in Petri dishes, the culture medium of all the dishes was changed and then recovered after 48 hours of incubation. This recovered medium corresponds to the medium conditioned with senescent cells containing the SMS mediators (MCR20). • Step iii) of culturing human dermal fibroblasts, taken at the R5 passage in T25 flasks, • a step iv) of amplification of the cells obtained on conclusion of step iii) to obtain to obtain “young” or “R6” cells in the amplification phase, Steps iii) and iv) are performed in parallel with steps i) and ii).

β-galactosidase = assay: Contagious aging (bystander effect) model: β-galactosidase activity by X-gal staining in R6 young fibroblasts treated with product, then MCR20 conditioned medium; type: cell-based; conditions: R6 passage young human dermal fibroblasts, treated then placed in contact with MCR20 conditioned medium; compositions diluted in 1,3-propanediol to 0.1% by mass
Description: Measurement of the activity of the β-galactosidase enzyme is performed at the metabolic level, and even more particularly with a measurement involving colorimetric enzymatic detection.
Briefly, the β-galactosidase present in the cells reacts specifically with one of its substrates, X-gal (or 5-bromo-4-chloro-3-indolyl-β-D-galactopyranoside (C14H15BrClNO6)) which is deposited on the cell lawns. This substrate is a galactoside, a galactose heteroside, bonded to a substituted indole nucleus.
The particular process thus comprises the following steps: • Step i) of culturing of culturing human dermal fibroblasts, taken at the R19 passage in T25 flasks, • Step ii) of amplification of the cells obtained on conclusion of step i) to obtain a medium conditioned with senescent cells or “MC R20”. Amplification of the cells obtained on conclusion of step i) is performed by seeding said cells in Petri dishes at 0.3 M/Petri dish. After amplification for 4 days in Petri dishes, the culture medium of all the dishes was changed and then recovered after 48 hours of incubation. […]

Row | SMILES | Ratio R1=[(N10−N1i)×100]/[(N10−N1)] for extracellular IL-6 ([1]; N1 = 8.96 (untreated, unstressed), N10 = 41.38 (untreated, MCR20)) | Extracellular IL-6, N1i [1] | β-galactosidase, N2i (β-galactosidase)
1 | OCCCO [1,3-propanediol] | R1 = 13.35 | N1i = 37.05 ± 2.57 pg/μg of proteins | N2i = 13.40 ± 2.69 number of “blue” positive cells/total number of cells
2 | O=C1O[C@H]([C@@H](O)CO)C(O)=C1O [vitamin C, ascorbic acid, reference compound] |  | N1i = 27.31 ± 3.87 pg/μg of proteins | 
3 | CC(=O)Oc1c(C)c(C)c2c(c1C)CC[C@@](C)(CCC[C@H](C)CCC[C@H](C)CCCC(C)C)O2 [vitamin E, D-α-tocopheryl acetate, reference compound] |  |  | N2i = 2.99 ± 0.45 number of “blue” positive cells/total number of cells
